These results are taken from ChEMBL document CHEMBL1201862, “PubChem BioAssay data set” (2004).

Holding throughout (experiment): inhibition of tumour cell growth, NCI panel, 48 h
The subject of test [1] is COLO 205.
Test [2] relates to HCC 2998.
In test [3] the test system is HL-60.
Test [4] has as its system HOP-62.
Test [5] has as its system HOP-92.
Test [6] deals with HT-29.
Test [7] deals with K562.
The subject of test [8] is Malme-3M.
For test [9], the system named is OVCAR-3.
For test [10], the system named is OVCAR-5.
Test [11] concerns OVCAR-8.
In test [12] the test system is RPMI-8226.
Test [13] relates to SF-539.
Test [14] relates to SK-MEL-28.
For test [15], the system named is SNB-19.
Test [16] relates to SNB-75.
Test [17] relates to UACC-257.
The test system of test [18] is UACC-62.
Test [19] relates to UO-31.
Test [20] relates to MCF7.

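Values below derive from 48-hour exposures of cells grown in 96-well plates, with endpoints linearly interpolated between the two concentrations bracketing the appropriate inhibition level. GI50 marks 50% less growth.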 Active and inactive are the calls of the source. Rule as the data show it: active = GI50 up to about 1.1 µM and inactive = higher.

Take `O=c1c2ccccc2nc(-c2ccc(Br)cc2)n1NC1OC(CO)C(O)C(O)C1O` (stereo not given): the GI50 was 59.8 µM (inactive) in test [1]; 82.4 µM (inactive) in [2]; 34.1 µM (inactive) in test [3]; > 100 µM (inactive) in test [4]; > 100 µM (inactive) in test [5]; > 100 µM (inactive) in test [6]. Further, the GI50 was 43.6 µM (inactive) in [7]; > 100 µM (inactive) in [8]; 31.3 µM (inactive) in test [9]; > 100 µM (inactive) in test [10]; 91.4 µM (inactive) in test [11]; 72.9 µM (inactive) in [12]. Besides, the GI50 in test [13] was > 100 µM (inactive); in test [14], > 100 µM (inactive); in test [15], > 100 µM (inactive); in [16], 80.5 µM (inactive); in test [17], > 100 µM (inactive); in test [18], 79.6 µM (inactive). Moreover, in test [19], the GI50 is 78 µM (inactive).
With `COc1ccc(C(C2C(=O)N(C)C(=O)N(C)C2=O)C(F)(F)C(=O)N(C)C)cc1` (stereo not given), the GI50 in [1], in [2], in test [4], in test [5], in [20] and in test [8] was > 100 µM (inactive) each time. For the same molecule, the GI50 in test [9], in [10], in [11], in test [12], in [13] and in [14] was > 100 µM (inactive) each time. The GI50 in test [15], in test [16], in [17], in test [18] and in [19] was > 100 µM (inactive) in each case.
On to `O=C(N/N=C1\C(=O)Nc2ccc(Br)cc21)/C(O)=C/C(=O)c1ccc(Cl)cc1`, for which the GI50 in test [1] is 86.5 µM (inactive); in [2] it was 50.5 µM (inactive); in test [4], 54.6 µM (inactive); in test [5] it was 43.1 µM (inactive); in [6], > 100 µM (inactive); in test [7], 8.77 µM (inactive). In addition, the GI50 in [20] was 44.4 µM (inactive); in test [8] it was > 100 µM (inactive); in test [9], 22.4 µM (inactive); in [10], 97.5 µM (inactive); in [11], 89.3 µM (inactive); in test [12] it was 19.4 µM (inactive). The GI50 in test [13] is 71.3 µM (inactive); in test [14], 51.6 µM (inactive); in [15] it was 50.4 µM (inactive); in test [16], 43.8 µM (inactive); in test [17], > 100 µM (inactive); in test [18] it was 44.3 µM (inactive). Further, the GI50 in test [19] is > 100 µM (inactive).
On to `CC(C)Oc1cccc(N2C(n3ccnc3)=Nc3ccncc3S2(=O)=O)c1`, for which the GI50 is 10.2 µM (inactive) in test [1]; 16.9 µM (inactive) in [2]; 18.3 µM (inactive) in test [4]; 12.7 µM (inactive) in test [5]; 15.9 µM (inactive) in [6]; 10.2 µM (inactive) in test [7]. In addition, the GI50 in test [20] is 10.1 µM (inactive); in test [8], 13.5 µM (inactive); in test [9], 9.35 µM (inactive); in test [10], 13.8 µM (inactive); in [11], 14.5 µM (inactive); in test [12] it was 3 µM (inactive). The GI50 was 6.31 µM (inactive) in test [13]; 17.9 µM (inactive) in [14]; 20.5 µM (inactive) in test [15]; 18.7 µM (inactive) in test [16]; 16.4 µM (inactive) in [17]; 15.7 µM (inactive) in test [18]. Besides, the GI50 in test [19] was 21.6 µM (inactive).
Regarding `CCOC(=O)c1cn2c(n1)sc1cc([N+](=O)[O-])ccc12`, the GI50 in [1] is > 100 µM (inactive); in [2], > 100 µM (inactive); in test [4] it was 37 µM (inactive); in [5], > 100 µM (inactive); in test [6] it was 86.1 µM (inactive); in test [7], > 100 µM (inactive). Further, the GI50 in [20], in test [8], in test [9], in test [10], in test [11] and in [12] was > 100 µM (inactive) each time. Further, the GI50 in test [13] is 62.7 µM (inactive); in test [14], > 100 µM (inactive); in test [15] it was 78.2 µM (inactive); in [16], 58.2 µM (inactive); in test [17], > 100 µM (inactive); in [18], > 100 µM (inactive). Moreover, the GI50 in [19] is > 100 µM (inactive).
Consider `CCCc1cc(=O)oc2c3c(c4c(c12)OC(C)(C)CC4)O[C@@H](C)[C@H](C)[C@H]3O`, for which the GI50 in test [1] is 12.6 µM (inactive); in test [2] it was 13.6 µM (inactive); in test [4] it was 14.9 µM (inactive); in test [5] it was 13.6 µM (inactive); in [6], 8.3 µM (inactive); in test [7] it was 2.79 µM (inactive). The GI50 in test [20] was 12.6 µM (inactive); in [8], 14.4 µM (inactive); in test [9], 15.7 µM (inactive); in [10], 12.7 µM (inactive); in [11], 13.3 µM (inactive); in test [12] it was 4.35 µM (inactive). The GI50 was 17.6 µM (inactive) in [13]; 15.6 µM (inactive) in test [14]; 14 µM (inactive) in test [15]; 10.3 µM (inactive) in [16]; 4.94 µM (inactive) in test [17]; 9.02 µM (inactive) in test [18]. For the same molecule, the GI50 in test [19] was 6.12 µM (inactive).
`BrP(NC1CCCCCC1)(c1ccccc1)(c1ccccc1)c1ccccc1`: the GI50 is 1.78 µM (inactive) in test [1]; 2.04 µM (inactive) in [2]; 1.9 µM (inactive) in [3]; 8.79 µM (inactive) in [4]; 2.1 µM (inactive) in test [6]; 2.74 µM (inactive) in test [7]. Besides, the GI50 in [20] was 2.5 µM (inactive); in [8] it was 2.93 µM (inactive); in test [9] it was 3.38 µM (inactive); in [10], 18 µM (inactive); in test [11] it was 2.9 µM (inactive); in test [12], 1.03 µM (active). Also, the GI50 in test [13] was 14.1 µM (inactive); in test [14], 2.4 µM (inactive); in test [15], 4.66 µM (inactive); in test [17] it was 1.86 µM (inactive); in test [18], 3.03 µM (inactive); in test [19] it was 4.25 µM (inactive).
In the case of `Cc1cnc2nc(-c3ccc4ccccc4c3)cc(O)c2c1`, the GI50 in [1] is 0.342 µM (active); in test [2], 1.4 µM (inactive); in [4], 0.851 µM (active); in test [6], 0.53 µM (active); in test [7], 0.251 µM (active); in test [20] it was 0.561 µM (active). Also, the GI50 in test [10] is 0.855 µM (active); in test [11] it was 0.685 µM (active); in [12] it was 0.305 µM (active); in test [13] it was 0.391 µM (active); in test [14], > 100 µM (inactive); in [15] it was 0.908 µM (active). Also, the GI50 in test [16] was 0.391 µM (active); in test [18], 0.317 µM (active); in test [19], 0.847 µM (active).
